Data on 21 compounds can be found in US20190367520A1, “NEW COMPOUND HAVING FGFR INHIBITORY ACTIVITY AND PREPARATION AND APPLICATION THEREOF” (SHANGHAI INSTITUTE OF MATERIA MEDICA, CHINESE ACADEMY OF …, priority 2016, published 2019).

One series relates to SNU16 cells. Description: SNU16 cell proliferation (CCK-8, 72 h). The settings on record: Homo sapiens, SNU-16, read-out: SNU16 (IC50 class). It is filed as cell-based. As to the method:
The inhibitory effect of the compound on SNU16 cells proliferation was examined by CCK-8 Cell Counting Kit (Dojindo). The specific steps are as follows: SNU16 cells in logarithmic growth phase were inoculated into a 96-well culture plate at a suitable density, 90 μL per well, and cultured overnight, different concentrations of compounds were added for 72 hr, and the solvent control group was set (negative control). After the cells were treated by the compound for 72 h, the effect of the compound on cell proliferation was detected by CCK-8 cell counting kit (Dojindo). 10 μL of CCK-8 reagent was added to each well and placed in a 37° C. incubator for 2-4 hours. The full-wavelength microplate reader SpectraMax 190 was used at a measure wavelength of 450 nm.

The target in series [1] is FGFR1 kinase domain recombinant protein (Homo sapiens, UniProt P11362). The series can be described thus: FGFR1 enzyme activity at molecular level (ELISA, Poly(Glu,Tyr) 4:1 substrate).
FGFR1 kinase domain recombinant protein, sequence (P11362 478-767 limits assumed): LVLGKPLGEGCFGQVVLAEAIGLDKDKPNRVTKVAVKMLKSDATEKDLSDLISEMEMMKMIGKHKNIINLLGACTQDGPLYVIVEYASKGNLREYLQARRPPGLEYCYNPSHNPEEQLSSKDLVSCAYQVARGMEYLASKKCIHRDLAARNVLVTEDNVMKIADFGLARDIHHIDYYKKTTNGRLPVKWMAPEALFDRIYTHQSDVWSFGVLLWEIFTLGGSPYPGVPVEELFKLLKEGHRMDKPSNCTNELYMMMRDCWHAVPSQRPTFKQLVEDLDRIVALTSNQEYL
Experimental: (§1) The plate was placed at 37° C. for 12-16 hours. The liquid in the well was discarded, the plate was washed, and the panel was washed three times with 200 μL/well of T-PBS (PBS containing 0.1% Tween-20) for 5 minutes each time.
(§2) 50 μL of ATP solution diluted with reaction buffer (50 mM HEPES pH 7.4, 50 mM MgCl2, 0.5 mM MnCl2, 0.2 mM Na3VO4, 1 mM DTT) was added to each well to a final concentration of 5 μM. The compound was diluted to a suitable concentration in DMSO, 1 μL/well or containing the corresponding concentration of DMSO (negative control well), and the FGFR1, FGFR4 kinase domain recombinant protein diluted in 49 μL of reaction buffer was added to initiate the reaction. Two control wells without ATP were required for each experiment. The reaction was carried out for 1 hour at 37° C. on a shaker (100 rpm). The plate was washed three times with T-PBS. Primary antibody, PY99 dilution was added at 100 μL/well and shaken at 37° C. for 0.5 hour. The plate was washed three times with T-PBS. Secondary antibody, horseradish peroxidase-labeled goat anti-mouse IgG dilution was added at 100 μL/well, and shaken at 37° C. for 0.5 hour. […] (Ultrasound was required for the dissolution of OPD, and the chromogenic solution needed to be prepared when used). 2 M H2SO4 was added at 50 μL/well to quench the reaction and a tunable wavelength microplate reader SPECTRA MAX 190 was used at a wavelength of 490 nm.
(§3) The inhibition rate of the sample was obtained by the following formula:
(§4) The IC50 value was obtained by four-parameter regression using the software attached to the microplate reader.
For series [2], the target named is FGFR4 kinase domain recombinant protein (Homo sapiens, UniProt P22455). The series can be described thus: FGFR4 enzyme activity at molecular level (ELISA, Poly(Glu,Tyr) 4:1 substrate). A general note: ELISA stands for enzyme-linked immunosorbent assay.
FGFR4 kinase domain recombinant protein, sequence (P22455 467-755 limits assumed): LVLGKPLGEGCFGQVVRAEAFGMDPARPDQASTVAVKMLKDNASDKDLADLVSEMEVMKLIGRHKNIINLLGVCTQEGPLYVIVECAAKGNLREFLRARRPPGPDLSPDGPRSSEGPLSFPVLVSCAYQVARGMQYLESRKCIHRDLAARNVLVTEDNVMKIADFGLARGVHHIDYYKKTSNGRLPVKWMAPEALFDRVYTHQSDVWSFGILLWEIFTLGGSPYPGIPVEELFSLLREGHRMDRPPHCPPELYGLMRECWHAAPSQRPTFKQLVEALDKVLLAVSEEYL
Experimental: as §1, §2, §3, §4
For the next series, the target named is EGFR (Homo sapiens, UniProt P00533). The series can be described thus: Inhibitory activity on EGFR enzyme activity. It counts as biochemical.
EGFR, sequence (P00533 25-1210, species assumed): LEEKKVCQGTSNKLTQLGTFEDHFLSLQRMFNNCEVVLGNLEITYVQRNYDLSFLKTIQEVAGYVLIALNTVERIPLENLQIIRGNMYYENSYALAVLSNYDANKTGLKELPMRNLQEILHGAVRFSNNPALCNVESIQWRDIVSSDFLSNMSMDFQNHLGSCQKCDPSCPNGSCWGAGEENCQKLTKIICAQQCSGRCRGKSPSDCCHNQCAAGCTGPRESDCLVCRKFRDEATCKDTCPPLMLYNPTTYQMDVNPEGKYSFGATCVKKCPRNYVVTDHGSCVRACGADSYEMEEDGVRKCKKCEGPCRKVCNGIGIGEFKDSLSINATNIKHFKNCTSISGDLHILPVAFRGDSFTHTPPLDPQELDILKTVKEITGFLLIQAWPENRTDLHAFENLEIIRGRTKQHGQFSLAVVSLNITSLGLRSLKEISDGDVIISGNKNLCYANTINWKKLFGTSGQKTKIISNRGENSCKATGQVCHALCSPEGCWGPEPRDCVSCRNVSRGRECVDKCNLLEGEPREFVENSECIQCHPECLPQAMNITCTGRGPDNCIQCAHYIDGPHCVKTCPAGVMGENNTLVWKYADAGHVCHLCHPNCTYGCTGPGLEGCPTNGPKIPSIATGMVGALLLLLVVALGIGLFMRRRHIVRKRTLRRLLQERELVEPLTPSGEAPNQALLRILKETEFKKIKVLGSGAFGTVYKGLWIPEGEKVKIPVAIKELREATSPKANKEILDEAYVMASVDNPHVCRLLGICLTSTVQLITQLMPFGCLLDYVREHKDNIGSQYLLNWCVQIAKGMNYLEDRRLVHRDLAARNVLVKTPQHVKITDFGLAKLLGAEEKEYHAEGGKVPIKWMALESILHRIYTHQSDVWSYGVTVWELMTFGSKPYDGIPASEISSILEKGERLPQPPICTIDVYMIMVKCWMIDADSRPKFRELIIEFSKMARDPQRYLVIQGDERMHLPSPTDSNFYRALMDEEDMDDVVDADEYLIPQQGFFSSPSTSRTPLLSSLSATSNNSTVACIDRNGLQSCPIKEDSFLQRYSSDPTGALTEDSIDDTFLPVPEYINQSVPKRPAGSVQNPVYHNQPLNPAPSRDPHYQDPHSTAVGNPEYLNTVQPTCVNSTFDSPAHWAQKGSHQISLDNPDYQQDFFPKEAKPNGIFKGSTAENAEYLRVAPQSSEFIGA
Series [3] concerns human lung cancer NCI-H1581 transplanted tumor. The series can be described thus: Growth of transplanted tumor of human lung cancer NCI-H1581 in nude mice. It counts as in vivo, nude mouse. The settings on record: for T/C (%) relative tumor proliferation rate: d14; for body weight change of the animals / tumor volume change of the animals: po, 14 days. As to the method:
The tumor tissue in the vigorous growth period was cut into about 1.5 mm^3, and inoculated subcutaneously in the right axilla of nude mouse under aseptic conditions. The diameter of transplanted subcutaneously tumor in the nude mouse was measured with a vernier caliper. The mice were randomly divided into groups after the tumor was grown to an average volume of about 90 mm 3. The compound No. 12 obtained in Example 12 was orally administered once a day at a dose of 100 mg/kg and 20 mg/kg, respectively, for 14 days, and the growth inhibition effects of compound NO. 12 on subcutaneously transplanted tumor in human lung cancer NCI-H1581 nude mouse were measured.
In the solvent control group, an equal amount of physiological saline was given. During the entire experiment, the diameter of the transplanted tumor was measured twice a week, and the body weight of the mice was weighed. The tumor volume (TV) is calculated as: TV=½×a×b^2, where a and b represent length and width, respectively. According to the measured results, the relative tumor volume (RTV) was calculated as: RTV=Vt/V0, wherein V0 was the tumor volume measured when the mouse was administered in cage (i.e. d0), Vt was the tumor volume at each measurement.
On the day of the end of the experiment, 2 hours after administration, blood samples and tumor tissues of each group were collected and preserved.

As a reminder, the IC50 is the concentration needed to halve the response being measured.

Take `C=CC(=O)N1CCC(n2cc(-c3cc4cc(C)cc(OC)c4s3)c3c(N)ncnc32)C1` (centres unmarked) [NO. 1, 1-(3-(4-amino-5-(7-methoxy-5-methylbenzothiophen-2-yl)-7H-pyrrole[2,3-d]pyrimidine-7-yl)pyrrolidine-1-yl)prop-2-en-1-one]: the IC50 (in the series with SNU16 cells; in series [1]; in series [2]) was below 10 nM each time.
Take `C=CC(=O)N1CCC(n2nc(-c3cc4cc(C)cc(OC)c4s3)c3c(N)ncnc32)C1` (centres unmarked) [NO. 2, 1-(3-(4-amino-3-(7-methoxy-5-methylbenzothiophene-2-yl)-1H-pyrazole[3,4-d]pyrimidine-1-yl)pyrrolidine-1-yl)prop-2-en-1-one]: the figures for the IC50 (in the series on SNU16 cells; in series [1]; in series [2]) were below 10 nM, below 10 nM and 10 to 100 nM, respectively.
For the compound `C=CC(=O)N1CC[C@H](n2cc(-c3cc4cc(C)cc(OC)c4s3)c3c(N)ncnc32)C1` [NO. 12, (S)-1-(3-(4-amino-5-(7-methoxy-5-methylbenzothiophene-2-yl)-7H-pyrrole[2,3-d]pyrimidine-7-yl)pyrrolidine-1-yl)prop-2-en-1-one], the IC50 was above 1000 nM on EGFR, below 10 nM in series [1] and below 10 nM in series [2]. The “EGFR inhibitory activity (in words)” value at EGFR (conclusion from Table 3) is recorded as “substantially no EGFR inhibitory activity”. The entries for the “T/C (%) relative tumor proliferation rate” value in series [3] (20 mg/kg qd/14 po) and in series [3] (100 mg/kg qd/14 po) were 31.28% and 2.9%, respectively. In addition, the “body weight change of the animals” value is listed as 24.2% in series [3] (20 mg/kg) and −5.9% in series [3] (100 mg/kg). Further, the “tumor volume change of the animals” value in series [3] (20 mg/kg) amounted to 1500%; in series [3] (100 mg/kg) it was 54.8%.
In the case of `C=CC(=O)N1CC(n2nc(-c3cc4cc(C)cc(OC)c4s3)c3c(N)ncnc32)C1` [NO. 26, 1-(3-(4-amino-3-(7-methoxy-5-methylbenzothiophene-2-yl)-1H-pyrazole[3,4-d]pyrimidine-1-yl)azetidine-1-yl)prop-2-en-1-one], the IC50 in the series with SNU16 cells was above 100 nM; in series [1], below 10 nM; in series [2] it was below 10 nM.
On to `C#CC(=O)N1CC(n2nc(-c3cc4cc(C)cc(OC)c4s3)c3c(N)ncnc32)C1` [NO. 27], for which the IC50 with SNU16 cells is above 100 nM; in series [1], below 10 nM; in series [2], 10 to 100 nM.
In the case of `C=CS(=O)(=O)N1CC(n2cc(-c3cc4cc(C)cc(OC)c4s3)c3c(N)ncnc32)C1` [NO. 28, 5-(7-methoxy-5-methylbenzothiophene-2-yl)-7-(1-(vinylsulfonyl)azetidine-3-yl)-7H-pyrrole[2,3-d]pyrimidine-4-amine], the figures for the IC50 (with SNU16 cells; in series [1]) were above 100 nM and below 10 nM, respectively.
Consider `C=C(F)C(=O)N1CC(n2cc(-c3cc4cc(C)cc(OC)c4s3)c3c(N)ncnc32)C1` [NO. 29], for which the IC50 in the series on SNU16 cells was below 10 nM; in series [1], below 10 nM; in series [2] it was 10 to 100 nM.
For the compound `C=C(CN1CCOCC1)C(=O)N1CC(n2cc(-c3cc4cc(C)cc(OC)c4s3)c3c(N)ncnc32)C1` [NO. 31, 1-(3-(4-amino-5-(7-methoxy-5-methylbenzothiophene-2-yl)-7H-pyrrole[2,3-d]pyrimidine-7-yl)azetidine-1-yl)-2-(morpholinomethylene)prop-2-en-1-one], the IC50 (in the series with SNU16 cells; in series [1]; in series [2]) was below 10 nM each time.
On to `C=CC(=O)N1CCC(n2cc(-c3ccc4[nH]c(C)nc4c3)c3c(N)ncnc32)C1` (centres unmarked) [NO. 36, 1-(3-(4-amino-5-(2-methyl-1H-benzimidazol-5-yl)-7H-pyrrole[2,3-d]pyrimidine-7-yl)pyrrolidine-1-yl)prop-2-en-1-one], for which the IC50 with SNU16 cells is above 100 nM; in series [1] it was 10 to 100 nM; in series [2], 10 to 100 nM.
Regarding `COc1cc(C)cc2cc(-c3nn([C@H]4CCN(C(=O)/C=C/CN(C)C)C4)c4ncnc(N)c34)sc12` [NO. 38], the values for the IC50 (in the series with SNU16 cells; in series [1]; in series [2]) were below 10 nM, below 10 nM and above 100 nM, respectively.
On to `C#CC(=O)N1CC[C@H](n2nc(-c3cc4cc(C)cc(OC)c4s3)c3c(N)ncnc32)C1` [NO. 39, (S)-1-(3-(4-amino-3-(7-methoxy-5-methylbenzothiophene-2-yl)1H-pyrazolo[3,4-d]pyrimidine-1-yl)pyrrolidin-yl)prop-2-yn-1-one], for which the IC50 with SNU16 cells was above 100 nM; in series [1], below 10 nM; in series [2], below 10 nM.
Consider `C=CS(=O)(=O)N1CC[C@H](n2nc(-c3cc4cc(C)cc(OC)c4s3)c3c(N)ncnc32)C1` [NO. 40], for which the IC50 with SNU16 cells is above 100 nM; in series [1], below 10 nM; in series [2], below 10 nM.
For `C=CC(=O)N1CC(n2cc(-c3cc4c(OC)ccc(OC)c4s3)c3c(N)ncnc32)C1` [NO. 41, 1-(3-(4-amino-5-(4,7-dimethoxybenzothiophen-2-yl)-7H-pyrrole[2,3-d]pyrimidine-7-yl)azetidine-1-yl)prop-2-en-1-one], the IC50 in the series on SNU16 cells was in the range of 10 to 100 nM.
In the case of `COc1cc(C)cc2cc(-c3cn(C4CCN(C(=O)/C=C/CN5CCC(O)CC5)C4)c4ncnc(N)c34)sc12` (centres unmarked) [NO. 77, (E)-1-(3-(4-amino-5-(7-methoxy-5-methylbenzothiophene-2-yl)-7H-pyrrole[2,3-d]pyrimidine-7-yl)pyrrolidine-1-yl)-4-(4-hydroxypiperidine-1-yl)but-2-en-1-one], the IC50 in series [1] was below 10 nM; in series [2] it was 10 to 100 nM.
In the same order, the values of `C=CC(=O)Nc1cccc(Cn2nc(-c3cc4cc(C)cc(OC)c4s3)c3c(N)ncnc32)c1` [NO. 78, N-(3-((4-amino-3-(7-methoxy-5-methylbenzothiophene-2-yl)-1H-pyrazole[3,4-d]pyrimidine-1-yl)methyl)phenyl)acrylamide] are below 10 nM and 10 to 100 nM.
On the same counts, the results for `C=CC(=O)N1CCC(n2cc(-c3ccc4c(N)n[nH]c4c3)c3c(N)ncnc32)C1` (centres unmarked) [NO. 80, 1-(3-(4-amino-5-(3-amino-1H-indazol-6-yl)-7H-pyrrole[2,3-d]pyrimidine-7-yl)pyrrolidine-1-yl)prop-2-en-1-one] are above 100 nM and above 100 nM.
Consider `COCCN(C)C/C=C/C(=O)N1CCC(n2cc(-c3cc4cc(C)cc(OC)c4s3)c3c(N)ncnc32)C1` (centres unmarked) [NO. 81, (E)-1-(3-(4-amino-5-(7-methoxy-5-methylbenzothiophene-2-yl)-7H-pyrrole[2,3-d]pyrimidine-7-yl)pyrrolidine-1-yl)-4-((2-methoxyethyl) (methyl)amino)but-2-en-1-one], for which the IC50 in series [1] is below 10 nM; in series [2], 10 to 100 nM.
As for `C=CC(=O)N1CCC(n2cc(-c3ccncc3)c3c(N)ncnc32)C1` (centres unmarked) [NO. 82, 1-(3-(4-amino-5-(pyridine-4-yl)-7H-pyrrole[2,3-d]pyrimidine-7-yl)pyrrolidine-1-yl)prop-2-en-1-one], the IC50 in series [1] and in series [2] was above 100 nM throughout.
As for `C=CC(=O)N1CCC(n2cc(-c3ccoc3)c3c(N)ncnc32)C1` (centres unmarked) [NO. 83, 1-(3-(4-amino-5-(furan-3-yl)-7H-pyrrole [2,3-d]pyrimidine-7-yl)pyrrolidine-1-yl)prop-2-en-1-one], the IC50 in series [1] and in series [2] was above 100 nM each time.
As to `COc1cc(C)cc2cc(-c3nn(C4CCN(C(=O)CCl)C4)c4ncnc(N)c34)sc12` (centres unmarked) [NO. 84, 1-(3-(4-amino-3-(7-methoxy-5-methylbenzothiophene-2-yl)-1H-pyrazole[3,4-d]pyrimidine-1-yl)pyrrolidine-1-yl)-2-chloroethane-1-one], the IC50 is below 10 nM in series [1] and above 100 nM in series [2].
`C=CC(=O)N1CCC(n2cc(-c3cc4cc(C(=O)O)cc(OC)c4s3)c3c(N)ncnc32)C1` (centres unmarked) [NO. 85, 2-(7-(1-acryloylpyrrolidine-3-yl)-4-amino-7H-pyrrole[2,3-d]pyrimidine-5-yl)-7-methoxybenzothiophene-5-formic acid]: the IC50 in series [1] and in series [2] was above 100 nM in each case.
